Here are results for 4 compounds from US10960036B2, “Pharmaceutical composition for preventing and treating alpha herpes virus infection, containing, as active ingredient, Elaeocarpus sylvestris extract or fraction thereof” (priority 2016, dated 2021).

This assay deals with varicella-zoster virus (VZV). The assay can be described thus: Expression of VZV replication-related genes (gB, ORF62) in infected MRC-5 cells, real-time PCR. The conditions noted are these: 50 μg/mL, 3 days after infection. It is filed as cell-based. As to the method: Viruses used to measure anti-replication activity were varicella-zoster virus (VZV), herpes simplex virus-1 (HSV-1) and herpes simplex virus-2 (HSV-2), which were obtained from the American Type Culture Collection (ATCC), and MRC-5 and Vero cells were also obtained from the ATCC and cultured. In a 5% CO2 incubator at 37° C., Vero cells were cultured in RPMI1640 medium containing 10% fetal bovine serum and 25 mM HEPES (2-[4-(2-hydroxyethyl) piperazin-1-yl] ethanesulfonic acid), and MRC-5 cells were cultured in MEM medium containing 10% fetal bovine serum and 25 mM HEPES.
Next, on 3 days after the infection, the cells were collected, and the inhibitory effect on viral replication was analyzed by real-time PCR using VZV glycoprotein B (gB) and open reading frame 62 (ORF62) DNAs.
MRC-5 cells were infected with VZV by culturing them with VZV-infected cells at a cell-to-cell ratio of 1:8, and treated with the Elaeocarpus sylvestris extract and its fractions (extract, hexane (Hx), dichloromethane (MC), ethyl acetate (EA), butanol (BuOH), and distilled water (DW) 50 μg/mL). On 3 days after the infection, the cells were collected, and the inhibitory effect against viral replication was analyzed by real-time PCR using VZV glycoprotein B (gB) and open reading frame 62 (ORF62) DNAs.
In order to analyze the VZV replication inhibitory effect and target of Elaeocarpus sylvestris extract components, MRC-5 cells were infected with VZV by culturing them with VZV-infected cells at a cell-to-cell ratio of 1:8, and treated with 50 μg/mL of each of Elaeocarpus sylvestris extract fractions (DS-1, DS-2, DS-3 and DS-4). On 3 days after the infection, the cells were collected, and the viral replication inhibitory effect of the fractions was analyzed by real-time PCR using VZV glycoprotein B (gB) and open reading frame 62 (ORF62) DNAs.
(In qPCR the cycle at which signal appears reflects the starting amount.)
Take `COC(=O)c1cc(O)c(O)c(O)c1` (single isomer, unassigned) [DS-1, Methyl gallate]: the “expression of VZV glycoprotein B (gB)” value is given as “decreased” and the “expression of VZV open reading frame 62 (ORF62)” value (from here on “expression … (ORF62)”) is reported as “decreased”.
For the compound `COC(=O)c1cc(O)c(O)c(O)c1` (single isomer, unassigned) [DS-2, Methyl gallate], the “expression of VZV glycoprotein B (gB)” value is on record as “decreased” and the “expression … (ORF62)” value is “decreased”.
Turning to `O=C1O[C@H]2[C@@H]3OC(=O)c4cc(O)c(O)c(O)c4-c4c(cc(O)c(O)c4O)C(=O)OC[C@H]2O[C@@H](OC(=O)c2cc(O)c(O)c(O)c2)[C@@H]3OC(=O)c2cc(O)c(O)c3c2[C@@H]2C1=CC(=O)[C@](O)(O3)C2(O)O` [DS-3, Geraniin], the “expression of VZV glycoprotein B (gB)” value was “decreased” and the “expression … (ORF62)” value is on record as “decreased”.
For Casuarictin [DS-4], the “expression of VZV glycoprotein B (gB)” value is reported as “decreased” and the “expression … (ORF62)” value is “decreased”.
